The test system of one experiment is MDA-MB-231 cells. The settings on record: H2O2 exposure, RT = 20 Gy (table head; Table 6 title says 10 Gray in 3 fractions).
The subject of a further experiment is MCF7 cells. The settings on record: H2O2 exposure. The protocol:
PD 0332991 HCL (Palbociclib) and letrozole (Let; Formula: C17H11N5) were obtained from Fisher Scientific (Waltham, MA, USA). Palbociclib was dissolved in dimethyl sulfoxide (DMSO) to obtain a stock solution of 1 mM. Letrozole was dissolved in DMSO as a 100 mM stock solution. Drugs were serially diluted to determine the cytotoxic concentration 50% (CC50) of the TIB and manually seeded cell samples required to kill 50% of the cell population. Additionally, the CC50 values were determined by using the cytotoxicity values obtained experimentally and the linear interpolator webpage (https://www.johndcook.com/interpolator.html (accessed on 16 December 2021)) as previously described. […] TIB and MS MCF7 cells were incubated for 24 h prior to drug exposure. The same procedure explained in Section 2.5 was followed to determine cell viability.
Approximately, 1.2 × 10^6 cells/mL were resuspended in 1x PBS and used as the bioink cell solution. Modified inkjet cartridges were sonicated in deionized water for 15 min and tested in a previously modified thermal inkjet printer (HP Deskjet 340 Printer, HP, Palo Alto, CA, USA) inside of a biological safety cabinet. Next, 100 µL of cell solution was added to a modified sterile inkjet printer cartridge. The cell solution was bioprinted over one-half of the 96-well plate containing 200 µL of pre-incubated media. Manually seeded cells (MS) were added to the other half of the 96-well plate. Both TIB and MS cells were incubated immediately after with two media changes first at three days post bioprinting and then prior to the drug treatments.
Thermal inkjet bioprinted and manually seeded MCF7 cells were incubated for 5 days post bioprinting with two media changes to allow cells to settle and grow in their new environment. On the 5th day, each well-containing cell was adjusted to 10, 50, 100, and 150 µM PD and 10 µM Let. Letrozole remained constant for all treatments at 10 µM and is referred to as ##.# µM PD-Let. After 12 h post inoculation then at 24-h intervals for five consecutive days, all PD-Let-treated and non-treated cells were exposed to fractionated irradiation (RT) of 2, 4 (twice), and 5 (twice) Gray (Gy) for a cumulative dose of 10 and 20 Gy. Cell media was replenished after cumulative irradiation exposure of 10 Gy.
Cytotoxicity was assessed using an automated live-cell differential nuclear staining (DNS) imaging assay. […] Cytotoxicity was evaluated 12 h post irradiation by using the live-cell differential nuclear staining […] assay utilizing Hoechst 33342 and propidium iodide (PI) stains as previously described. […] Images of cells from individual wells used to quantify their viability profiles were independently captured by using the IN Cell Analyzer 2000 multi-well plate reader bioimager system (GE Healthcare, Systems, Chicago, IL, USA). […]

Another experiment concerns MCF-10A cells. The settings on record: H2O2 exposure.

The structures appear in SMILES notation. Read-outs that look alike come from different tables or passages of the source.

With `OO` [H2O2], the “Mean % of Live Cells MS” value in the experiment on MDA-MB-231 cells was 0.4%; with MCF7 cells (RT = 10 gray in 3 fractions), 15.4%; in the experiment on MCF7 cells (RT = 20 gray in 5 fractions), 0.3%; in the experiment on MCF-10A cells (RT = 0), 0.00%; with MCF-10A cells (RT = 20 Gray in 5 fractions) it was 1.9%. Besides, the “Mean % of Live Cells TIB” value in the experiment with MDA-MB-231 cells is 0.0%; with MCF7 cells (RT = 10 gray in 3 fractions), 12.1%; with MCF7 cells (RT = 20 gray in 5 fractions), 0.0%; with MCF-10A cells (RT = 0), 0.0%; in the experiment with MCF-10A cells (RT = 10 gray in 3 fractions, first column) it was 2.9%; with MCF-10A cells (RT = 10 gray in 3 fractions, second column so headed), 2.8%. The “Mean % of Live Cells TIB” value in the experiment with MCF-10A cells (RT = 20 Gray in 5 fractions) turned out to be 0.0%.

The record behind these values is paper PMC8704911, “Novel Combinatorial Strategy Using Thermal Inkjet Bioprinting, Chemotherapy, and Radiation on Human Breast Cancer Cells; an In-Vitro Cell Viability Assessment” (Materials, 2021).
